This is an account of results in US9539221B2, “Method of treating airway diseases with β-adrenergic inverse agonists” (EGB ADVISORS, LLC, priority 2003, dated 2017).

Molecules are shown by their SMILES. Entries after “also recorded” stand apart in the source; their conditions may differ. Read-outs that look alike come from different tables or passages of the source.

Assay [1] relates to β2-adrenergic receptor. The assay can be described thus: Immunohistochemistry of β2-adrenergic receptor levels in lung sections. The assay is classed as in vivo, mice. The following applies: chronic treatment versus untreated animals; epifluorescent microscopy.
Method: The mice were sacrificed and the lungs excised. […] Lungs were embedded in OCT and 12-μm sections cut with a Tissue-Tek II cryostat. […] After 3 washes in PBS, the slides were blocked with 5% milk in PBS for 1 h, and then incubated overnight with anti-β2-adrenergic receptor antibody (1:200, Santa Cruz Biotechnology) in blocking solution. Slides were washed in PBS and incubated with secondary antibody (1:200, Cy3 goat anti-rabbit, 16 h at 4° C.). […] After washing with PBS, coverslips were mounted and viewed by epifluorescent microscopy.
Assay [2] concerns sensitized and allergen-challenged mice. Put plainly: Acute nadolol with aminophylline, methacholine-induced bronchoconstriction. It is filed as in vivo. The following applies: nadolol 0.72 mg/kg i.p. 15 minutes prior to methacholine challenge. As to the method:
Mice were sensitized to the allergen ovalbumin as described in Example 1. […] At time point 1 (time=−10 min) baseline airway resistance of the mice was determined. At time point 2 (time=−5 min) methacholine was infused into mice to reach their EC70.

In assay [3] the test system is asthmatic mice. Put plainly: Airway resistance (Raw) response to methacholine provocation in murine model of asthma (forced oscillation). It is filed as in vivo, Balb/cJ mice. As to the method: Balb/cJ mice aged 6 weeks (Jackson Animal Laboratory, Bar Harbor, Me.) were housed under specific pathogen-free conditions and fed a chicken ovalbumin-free diet. The Animal Research Ethics Boards of both the University of Houston and the Baylor College of Medicine approved all experiments reported here. […] Mice were sensitized with subcutaneous injection of 25 μg of ovalbumin adsorbed to aluminum hydroxide on protocol days 2, 9, and 16. Subsequently, mice were given 50 μL of saline solution containing 25 μg of ovalbumin intranasally, on a daily basis, from protocol days 23 through 27. A group of ovalbumin-sensitized saline-challenged mice serves as controls for systemic sensitization and respiratory challenges with ovalbumin. Prior to intranasal administrations, mice were sedated with halothane vapor.
To examine the effects of duration of β-adrenergic ligand therapy on the phenotype of the murine model of asthma, the experimental drugs were administered either acutely or chronically to different groups of asthmatic mice.
Asthmatic mice on acute therapy were given a single intravenous bolus infusion of either β-adrenergic drug or normal saline on protocol day 28, 15 minutes before airway responsiveness to methacholine was determined. […] Asthmatic mice on chronic therapy were treated with the β-adrenergic drug during protocol days 1 to 28. […] These concentrations were chosen based on those producing therapeutic effects in mice in previously published studies. The non-asthmatic mice were fed normal chow.
On protocol day 28, mice were anesthetized, tracheotomized, and connected to a computer-controlled small animal ventilator (Flexivent, Scientific Respiratory Equipment, Inc., Montreal, Canada). Airway resistance (Raw) was measured using the forced oscillation technique. The cellular composition of bronchoalveolar lavage fluid (BALF) was also determined.
To induce airway constriction, a solution containing 150 μg/mL of acetyl-α-methylcholine chloride (methacholine) (Sigma Chemical, St. Louis, Mo.) was infused intravenously at constant rates using a syringe infusion pump (Raze Scientific Instruments, Stanford, Conn.). […] Each methacholine dose was administered for 3 to 5 minutes, during which data were sampled at 1-minute intervals and then averaged.
The complex input impedance of the respiratory system was computed and the value of the real part of respiratory system impedance at 19.75 Hz was taken to reflect the magnitude of airway resistance (Raw). To examine the degree of airway responsiveness of each animal, the values for Raw as a function of methacholine doses were plotted. The largest value for Raw achieved in response to methacholine stimulation was referred to as Rawpeak. For mice that achieved a plateau in the methacholine dose-Raw response curve, the ED50 was calculated by linear interpolation using the GraphPad Prism4 (GraphPad Software, Inc.). […] The Bonferroni test was used to examine the statistical differences between experimental groups. The effects of acute drug treatments on baseline respiratory system mechanics were assessed using a two-tailed paired t-test. A value of P<0.05 was considered significant.
For these experiments, salbutamol was used for chronic administration at 0.5 mg/kg/day with a minipump and for acute administration at 0.15 mg/kg by i.v. bolus 15 minutes prior to challenge. Alprenolol was used at a high dose of 7200 ppm in chow or at a low dose of 720 ppm in chow. Carvedilol was used at a high dose of 2400 ppm in chow or at a low dose of 720 ppm in chow.

The next assay concerns Phospholipase C (PLC-β1). Put plainly: Ratio of phospholipase C to actin by immunoblotting in cultured tracheal smooth muscle cells of treated mice. The assay is classed as cell-based. The note with it: asthmatic mice, chronic nadolol high dose treatment. The text has this:
Cultured tracheal smooth muscle cells were obtained from mice exposed to the following treatments: NS/NC=nonasthmatic, non-challenged mice; S/C=asthmatic mice; Sal.Ac=asthmatic mice, acute salbutamol treatment; Sal.Ch=asthmatic mice, chronic salbutamol treatment; Nad.Ac=asthmatic mice, acute nadolol high dose treatment; and Nad.Ch=asthmatic mice, chronic nadolol high dose treatment.
After airway function experiments, the trachea were surgically removed from anesthetized mice that had been treated with drugs or vehicle. The trachea was minced and the cells plated and grown in culture. The smooth muscle cells grow faster and take over the culture dish. The cells were grown in medium which contained the drugs used in the treatment or vehicle controls. Phospholipase C (PLC-β1) was determined by immunoblotting with an antibody specific for the enzyme. Actin was used as a loading control and the amount of PLC-β1 was expressed as a ratio to actin.
The phospholipase C protein level was measured in these cultured cells and compared with the level of the structural protein actin as a baseline. The enzyme phospholipase C plays a key role in the pathway leading to asthmatic symptoms, as it cleaves a phosphodiester bond in membrane phospholipids, resulting in the formation of a 1,2-diglyceride. […]
On the technique in general: In western blotting, separated proteins are transferred to a membrane and probed.

In assay [4] the test system is asthmatic mice. The following applies: same mouse asthma model, Callaerts-Vegh et al. 2004, cited from earlier work.
In assay [5] the target is β2-adrenergic receptor (Mus musculus, UniProt P18762). Put plainly: β-adrenergic receptor density in lung membranes of treated asthmatic mice by ICYP radioligand binding. It is filed as in vivo. On the procedure: (§1) β2-adrenergic receptor numbers were measured in asthmatic mice as follows. […] Mice were sacrificed and lung membranes were isolated as follows. Frozen lung tissue was homogenized in an ice-cold buffer containing 0.32 M sucrose and 25 mM Tris (pH 7.4) using a polytron (Pro 200, Pro Scientific, Inc.). The homogenate was centrifuged at 1000×g for 10 min at 4° C. The resulting supernatant was centrifuged at 40,000×g for 20 min at 4° C. The pellet was suspended in an ice-cold 25 mM Tris-HCl buffer (pH 7.4) and centrifuged at 40,000×g for 20 min at 4° C. The final pellet was suspended in 200 μL of 25 mM Tris-HCl (pH 7.4); membrane protein concentration was determined by BCA protein assay kit. […] The incubation was done at 37° C. for 2 h and terminated by rapid vacuum filtration through glass fiber filters. The filters were washed three times with 250 μL of cold wash buffer (25 mM Tris-HCl, pH 7.4) and the radioactivity determined in a counter. […] Receptor densities are expressed as femtomoles of sites per milligram of protein. Bmax is determined by nonlinear regression of the saturation binding curves.
Chain of β2-adrenergic receptor (Mus musculus, UniProt P18762) (P18762 whole entry): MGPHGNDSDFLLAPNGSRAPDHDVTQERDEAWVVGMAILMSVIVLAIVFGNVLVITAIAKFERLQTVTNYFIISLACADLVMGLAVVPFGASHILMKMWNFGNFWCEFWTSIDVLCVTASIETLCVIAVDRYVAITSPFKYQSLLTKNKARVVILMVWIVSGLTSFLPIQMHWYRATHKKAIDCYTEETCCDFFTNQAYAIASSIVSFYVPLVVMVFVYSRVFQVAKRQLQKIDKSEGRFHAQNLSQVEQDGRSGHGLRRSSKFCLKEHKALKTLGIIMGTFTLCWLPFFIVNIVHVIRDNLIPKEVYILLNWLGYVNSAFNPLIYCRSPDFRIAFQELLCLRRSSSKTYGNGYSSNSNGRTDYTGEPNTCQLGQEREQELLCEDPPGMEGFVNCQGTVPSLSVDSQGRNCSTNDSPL

Assay [6] concerns β2-adrenergic receptor. The description is as above. It is filed as in vivo. The note with it: 2 days of administration. As to the method: as §1

Turning to `CC(C)(C)NCC(O)COc1cccc2c1CC(O)C(O)C2` (centres unmarked) [Nadolol, nadolol], the “labeling with anti-β2-adrenergic receptor antibodies in lungs” value with β2-adrenergic receptor [1] is reported as “considerably more intense; also recorded: increase in β-adrenergic receptor density”. Moreover, the baseline airway resistance entry in assay [2] is “same baseline airway resistance as non-drug treated sensitized and allergen-challenged mice”. Besides, in the assay with asthmatic mice [3] (1 ppm in chow), the “airway resistance (Raw)” value is listed as “identical to the untreated mice”. In addition, the “airway responsiveness to methacholine provocation (airway resistance, Raw)” value with asthmatic mice [3] (asthmatic mice, chronic: 28 days (chow; salbutamol by osmotic minipump)) is “produced a decrease in airway responsiveness, which was more pronounced than that caused by carvedilol treatment; also recorded: reduced the responsiveness of asthmatic mice to methacholine provocation”. Further, the “protection from airway hyperresponsiveness” value with asthmatic mice [3] (chronic administration, high and low dose in chow (Example 6)) is given as “providing protection from airway hyperresponsiveness”. Moreover, the “ratio of phospholipase C to actin” value in the assay on Phospholipase C (PLC-β1) was “significantly decreases the activity of phospholipase C”. Besides, the figures for the airway hyperresponsiveness entry with asthmatic mice [4] (administered acutely) and in the assay with asthmatic mice [4] (administered chronically) were “worsens airway hyperresponsiveness” and “prevents airway hyperresponsiveness”, respectively. Moreover, on β2-adrenergic receptor [5] (15 Minutes drug treatment, lung membranes of asthmatic mice, mean±SEM), the “Bmax (β-adrenergic receptor density)” value is listed as 181.9 ± 48.28 femtomoles of sites per milligram of protein. The “βmax (β-adrenergic receptor density)” value on β2-adrenergic receptor [5] (28 Days drug treatment, lung membranes of asthmatic mice, mean±SEM) was 785.5 ± 154.8 femtomoles of sites per milligram of protein. Further, the “Increased β2AR density” value at β2-adrenergic receptor [5] (28 days of administration) is listed as “showed an increase in receptor density”; in the assay with β2-adrenergic receptor [6] it was “yes”; in the assay with β2-adrenergic receptor [6] (listed as nadolol) it was “showed an increase in receptor density”. In addition, the “increase of the level of β2-adrenergic receptors over the non-treated mice” value on β2-adrenergic receptor [5] (chronic administration, versus untreated methacholine-challenged asthmatic mice) is listed as “nearly eightfold increase”.
